Laboratory results as given in patent US8436043B2 (Takeda Pharmaceutical Company Limited, priority 2008, dated 2013).

Target: T1, human glucagon receptor (Homo sapiens, UniProt P47871)
T1 construct: made in house; host or cells: FreeStyle CHO cells, transient transfection with pMSRαneo/hGCGR; membrane fraction (35,000 rpm pellet)
Assay: Glucagon binding inhibitory activity ([125I]-glucagon binding to glucagon receptor membrane protein)
Conditions: human glucagon receptor membrane protein, [125I]-glucagon, 90 min room temperature
Protocol: The glucagon binding inhibitory action of the compound of the present invention was evaluated by the following method.
(1) Cloning of Human Glucagon Receptor Gene
Human glucagon receptor gene was cloned by PCR reaction using human pancreas Marathon-ready cDNA (Clontech) as a template and the following primer set.
PCR reaction was performed using Advantage 2 polymerase (Clontech) and according to the attached protocol. The obtained PCR product was electrophoresed on an agarose gel (1%). An about 1.4 kb of DNA fragment containing a glucagon receptor gene was recovered from the gel and digested with restriction enzymes EcoRI and NotI. DNA treated with the restriction enzymes was electrophoresed on an agarose gel (1%). An about 1.4 kb of DNA fragment was recovered and ligated to plasmid pMSRαneo digested with restriction enzymes EcoRI and NotI to construct a human-type glucagon receptor expression plasmid DNA “pMSRαneo/hGCGR”.
(2) Preparation of Glucagon Receptor Membrane Protein
A human-type glucagon receptor was expressed using FreeStyle CHO Expression System (Invitrogen). A transient expression in FreeStyle CHO cell was performed using a human-type glucagon receptor expression plasmid DNA “pMSRαneo/hGCGR” and according to the manual attached to the FreeStyle CHO Expression System. The above-mentioned DNA was transfected and the cultured with shaking for 2 days (37° C., 8% CO2, 125 rpm). 2400 ml of culture medium was centrifuged at 2,000 rpm for 10 min and the cells were collected. The collected cells were washed with PBS, suspended in homogenate buffer [10 mM NaHCO3 (pH 7.4), 1 mM EDTA, Complete EDTA-free (Roche, 1 tablet/50 ml)] and disrupted by polytron cell disrupter (Kinematica AG). Disruption solution was centrifuged at 2,000 rpm for 10 min and the supernatant was collected.
(3) Measurement of Glucagon Binding Inhibitory Activity
The plate was stood for 90 min at room temperature. The reaction solution was transferred from the reaction plate to a 96 well unifilter GF/C plate (Perkin Elmer Inc.) using a cell harvester (Perkin Elmer Inc.) and the membrane fraction was collected on the filter by suction. The filter was presoaked in 2 mg/ml of polyethyleneimine to prevent non-specific adsorption of labeled ligand. The filter was washed 4 times with a reaction buffer and dried for 2 hr at 42° C. To each well was added 25 μl of scintillator (MicroScint0; Perkin Elmer Inc.), and the fluorescence amount was measured using a microplate scintillation counter (TopCount NXT™; Perkin Elmer Inc.).
In addition, the inhibitory rate (%) of the well added with the test compound (10 μM; containing 0.4% DMSO) was calculated, using the reaction rate of the well added only with 0.4% DMSO as 0% inhibitory rate, and the reaction rate of the well added with non-labeled glucagon (final concentration 1 μM) as 100% inhibitory rate.

T1 sequence (P47871 26-477): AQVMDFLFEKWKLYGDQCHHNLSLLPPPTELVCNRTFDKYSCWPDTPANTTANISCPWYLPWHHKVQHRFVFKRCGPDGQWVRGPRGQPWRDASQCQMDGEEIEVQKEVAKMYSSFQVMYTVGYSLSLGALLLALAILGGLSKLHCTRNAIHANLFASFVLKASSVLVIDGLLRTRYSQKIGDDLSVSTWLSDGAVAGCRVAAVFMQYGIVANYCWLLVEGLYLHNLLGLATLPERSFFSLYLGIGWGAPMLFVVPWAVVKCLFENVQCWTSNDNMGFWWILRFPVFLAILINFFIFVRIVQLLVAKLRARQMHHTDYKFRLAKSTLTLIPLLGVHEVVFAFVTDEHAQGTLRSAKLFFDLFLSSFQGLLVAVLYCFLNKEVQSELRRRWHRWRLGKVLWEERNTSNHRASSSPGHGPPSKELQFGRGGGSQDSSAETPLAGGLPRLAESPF

IC50 [µM]	Structure (SMILES)
1.8	CN(CCC(=O)O)C(=O)c1ccc(NC(c2nn(C)c3ccccc23)C2CCCCC2)cc1 (stereo not shown) [Example A7, 3-{[(4-{[cyclohexyl(1-methyl-1H-indazol-3-yl)methyl]amino}phenyl)carbonyl](methyl)amino}propanoic acid]
1.7	Cn1c(C(Nc2ccc(C(=O)NCCC(=O)O)cc2)C2CCCCC2)nc2ccccc21 (stereo not shown) [Example A3, 3-{[(4-{[cyclohexyl(1-methyl-1H-benzimidazol-2-yl)methyl]amino}phenyl)carbonyl]amino}propanoic acid]

Same assay, conditions: test compound 10 μM; 0.4% DMSO = 0%, non-labeled glucagon 1 μM = 100%; read-out: inhibitory rate (%) at 10 μM

inhibition at 10 µM [%]	Structure (SMILES)
73	COc1ccc2oc(C(CCCCSC)Nc3ccc(C(=O)NCCC(=O)O)cc3)c(C)c2c1 (stereo not shown) [Example A120, 3-{[(4-{[1-(5-methoxy-3-methyl-1-benzofuran-2-yl)-5-(methylsulfanyl)pentyl]amino}phenyl)carbonyl]amino}propanoic acid]
88	Cc1cc(COc2ccc3oc(C(Nc4ccc(C(=O)N(C)CCC(=O)O)cc4)C4CCCCC4)c(C)c3c2)no1 (stereo not shown) [Example A194, 3-[({4-[(cyclohexyl{3-methyl-5-[(5-methylisoxazol-3-yl)methoxy]-1-benzofuran-2-yl}methyl)amino]phenyl}carbonyl)(methyl)amino]propanoic acid]
51	COCCCCC(Nc1ccc(C(=O)N(C)CCC(=O)O)cc1)c1oc2ccc(OC)cc2c1C (stereo not shown) [Example A124, 3-{[(4-{[5-methoxy-1-(5-methoxy-3-methyl-1-benzofuran-2-yl)pentyl]amino}phenyl)carbonyl](methyl)amino}propanoic acid]
85	Cc1c(C(Nc2ccc(C(=O)NCCC(=O)O)cc2)C2CCCCC2)oc2cccnc12 (stereo not shown) [Example A112, 3-{[(4-{[cyclohexyl(3-methylfuro[3,2-b]pyridin-2-yl)methyl]amino}phenyl)carbonyl]amino}propanoic acid]
62	COc1ccc2cc(C(Nc3ccc(C(=O)N(C)CCC(=O)O)cc3)C3CCCCC3)oc2c1 (stereo not shown) [Example A28, 3-{[(4-{[cyclohexyl(6-methoxy-1-benzofuran-2-yl)methyl]amino}phenyl)carbonyl](methyl)amino}propanoic acid]
77	Cc1c(C(CC(C)C)Nc2ccc(C(=O)NCCC(=O)O)cc2)oc2ccccc12 (stereo not shown) [Example A23, 3-{[(4-{[3-methyl-1-(3-methyl-1-benzofuran-2-yl)butyl]amino}phenyl)carbonyl]amino}propanoic acid]
82	Cc1c(C(Nc2ccc(C(=O)N(C)CCC(=O)O)cc2)C(C)C)oc2ccc(OCc3ccccc3)cc12 (stereo not shown) [Example A85, 3-[{[4-({1-[5-(benzyloxy)-3-methyl-1-benzofuran-2-yl]-2-methylpropyl}amino)phenyl]carbonyl}(methyl)amino]propanoic acid]
67	CCC(CC)C(Nc1ccc(C(=O)N(C)CCC(=O)O)cc1)c1oc2ccc(OC)cc2c1C (stereo not shown) [Example A105, 3-{[(4-{[2-ethyl-1-(5-methoxy-3-methyl-1-benzofuran-2-yl)butyl]amino}phenyl)carbonyl](methyl)amino}propanoic acid]
73	COCCOc1ccc2oc(C(Nc3ccc(C(=O)N(C)CCC(=O)O)cc3)C3CCCCC3)c(C)c2c1 (stereo not shown) [Example A79, 3-[{[4-({cyclohexyl[5-(2-methoxyethoxy)-3-methyl-1-benzofuran-2-yl]methyl}amino)phenyl]carbonyl}(methyl)amino]propanoic acid]
79	Cc1c(C(Nc2ccc(C(=O)N(C)CCC(=O)O)cc2)C2CCCCC2)oc2cccc(F)c12 (stereo not shown) [Example A162]
75	Cc1c(C(Nc2ccc(C(=O)NCCC(=O)O)cc2)C2CCCCC2)oc2ccc(Cl)cc12 (stereo not shown) [Example A88, 3-{[(4-{[(5-chloro-3-methyl-1-benzofuran-2-yl)(cyclohexyl)methyl]amino}phenyl)carbonyl]amino}propanoic acid]
68	COc1ccc2oc(C(Nc3ccc(C(=O)NCCC(=O)O)cc3)C3CCCCC3)c(Br)c2c1 (stereo not shown) [Example A102, 3-{[(4-{[(3-bromo-5-methoxy-1-benzofuran-2-yl)(cyclohexyl)methyl]amino}phenyl)carbonyl]amino}propanoic acid]
80	Cc1c(C(Nc2ccc(C(=O)N(C)CCC(=O)O)cc2)C2CCCCC2)oc2ccc(OCc3cccnc3)cc12 (stereo not shown) [Example A156, 3-[{[4-({cyclohexyl[3-methyl-5-(pyridin-3-ylmethoxy)-1-benzofuran-2-yl]methyl}amino)phenyl]carbonyl}(methyl)amino]propanoic acid]
76	COc1ccc2oc(C(CC(C)C)Nc3ccc(C(=O)NCCC(=O)O)cc3)c(C)c2c1 (stereo not shown) [Example A92, 3-{[(4-{[1-(5-methoxy-3-methyl-1-benzofuran-2-yl)-3-methylbutyl]amino}phenyl)carbonyl]amino}propanoic acid]
90	COc1ncccc1-c1ccc2oc(C(Nc3ccc(C(=O)N(C)CCC(=O)O)cc3)C3CCCCC3)c(C)c2c1 (stereo not shown) [Example A177, 3-[{[4-({cyclohexyl[5-(2-methoxypyridin-3-yl)-3-methyl-1-benzofuran-2-yl]methyl}amino)phenyl]carbonyl}(methyl)amino]propanoic acid]

Second part, the molecule before the results:

Structure (SMILES)	inhibition at 10 µM [%]
CN(CCC(=O)O)C(=O)c1ccc(NC(c2cn(-c3ccccc3)nc2CCc2ccccc2)C2CCCCC2)cc1 (stereo not shown) [Example 16, 3-[{[4-({cyclohexyl[1-phenyl-3-(2-phenylethyl)-1H-pyrazol-4-yl]methyl}amino)phenyl]carbonyl}(methyl)amino]propanoic acid]	63
CCc1nn(-c2cc(F)cc(F)c2)cc1C(Nc1ccc(C(=O)N(C)CCC(=O)O)cc1)C1CCCCC1 (stereo not shown) [Example 87, 3-[{[4-({cyclohexyl[1-(3,5-difluorophenyl)-3-ethyl-1H-pyrazol-4-yl]methyl}amino)phenyl]carbonyl}(methyl)amino]propanoic acid]	64
O=C(O)CCNC(=O)c1ccc(NC(c2cn(-c3ccc(OC(F)(F)F)cc3)nc2OCc2ccccc2)C2CCCCC2)cc1 (stereo not shown) [Example 60, 3-{[(4-{[{3-(benzyloxy)-1-[4-(trifluoromethoxy)phenyl]-1H-pyrazol-4-yl}(cyclohexyl)methyl]amino}phenyl)carbonyl]amino}propanoic acid]	71
CCOc1cccc(-n2cc(C(Nc3ccc(C(=O)NCC(C)C(=O)O)cc3)C3CCCCC3)c(CC)n2)c1 (stereo not shown) [Example 92, 3-({[4-({cyclohexyl[1-(3-ethoxyphenyl)-3-ethyl-1H-pyrazol-4-yl]methyl}amino)phenyl]carbonyl}amino)-2-methylpropanoic acid]	56
COc1ccccc1-n1cc(C)c(C(Nc2ccc(C(=O)N(C)CCC(=O)O)cc2)C2CCCCC2)n1 (stereo not shown) [Example 77, 3-[{[4-({cyclohexyl[1-(2-methoxyphenyl)-4-methyl-1H-pyrazol-3-yl]methyl}amino)phenyl]carbonyl}(methyl)amino]propanoic acid]	55
Cc1nn(-c2ccccc2)cc1C(Nc1ccc(C(=O)N(C)CCC(=O)O)cc1)C1CCCCC1 (stereo not shown) [Example 18, 3-{[(4-{[cyclohexyl(3-methyl-1-phenyl-1H-pyrazol-4-yl)methyl]amino}phenyl)carbonyl](methyl)amino}propanoic acid]	72
CN(CCC(=O)O)C(=O)c1ccc(NC(c2nn(C)c3ccccc23)C2CCCCC2)cc1 (stereo not shown) [Example A7, 3-{[(4-{[cyclohexyl(1-methyl-1H-indazol-3-yl)methyl]amino}phenyl)carbonyl](methyl)amino}propanoic acid]	60
Cn1c(C(Nc2ccc(C(=O)NCCC(=O)O)cc2)C2CCCCC2)nc2ccccc21 (stereo not shown) [Example A3, 3-{[(4-{[cyclohexyl(1-methyl-1H-benzimidazol-2-yl)methyl]amino}phenyl)carbonyl]amino}propanoic acid]	55
CCn1nc(-c2ccc(OC(F)(F)F)cc2)cc1C(CC(C)C)Nc1ccc(C(=O)N(C)CCC(=O)O)cc1 (stereo not shown) [Example 59, 3-[({4-[(1-{1-ethyl-3-[4-(trifluoromethoxy)phenyl]-1H-pyrazol-5-yl}-3-methylbutyl)amino]phenyl}carbonyl)(methyl)amino]propanoic acid]	61
Cc1nn(-c2ccc(C(F)(F)F)cc2)cc1C(Nc1ccc(C(=O)NCCC(=O)O)cc1)C1CCCCC1 (stereo not shown) [Example 27, 3-[({4-[(cyclohexyl{3-methyl-1-[4-(trifluoromethyl)phenyl]-1H-pyrazol-4-yl}methyl)amino]phenyl}carbonyl)amino]propanoic acid]	70
CC(C)(C)c1nn(-c2ccc(C(F)(F)F)cn2)cc1C(Nc1ccc(C(=O)NCCC(=O)O)cc1)C1CCCCC1 (stereo not shown) [Example 13, 3-{[(4-{[{3-tert-butyl-1-[5-(trifluoromethyl)pyridin-2-yl]-1H-pyrazol-4-yl}(cyclohexyl)methyl]amino}phenyl)carbonyl]amino}propanoic acid]	71
